Laboratory results reported in patent US7977387B2, “Aminobenzophenone compounds” (Leo Pharma A/S, priority 2003, dated 2011).

What was measured:
IL-1β = test: Inhibition of IL-1β secretion in LPS stimulated peripheral blood mononuclear cells; assay type: cell-based; details: PBMC; LPS stimulated human peripheral blood mononuclear cells, 18 hours, ELISA; read-out: The median inhibition concentration (IC50, nM) of IL-1β
How it was run: (§1)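 Human PBMCs (5×10^5 cells/ml, RPMI 1640 + 2% FCS) pre-treated with compound 30 min, then stimulated with LPS ([…]) for 18 h. Secreted IL-1β and TNF-α quantified by ELISA; IC50 values calculated.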

[1] = system: LPS induced TNF-α response; test: In vivo screening model of LPS induced TNF-α response in mice; details: Mus musculus, mice (C3H/HeN), dosed 1 hour prior to LPS, plasma TNF-α 80-90 minutes after LPS, vs LPS treated control group, read-out: In vivo inhibition of LPS induced TNF-α production (in %)
Procedure: In Vivo Screening Model of LPS Induced TNF-α Response in Mice
To study the effect of compounds of the present invention in vivo, an in vivo screening model of LPS induced TNF-α response in mice was set up as follows: Groups of 6 mice (C3H/HeN, female, about 8 weeks (20 g), Bomholtgaard) were dosed with test compounds in suspension vehicle 1 hour prior to LPS administration (LPS from E. coli 055:B5, L-4005, Sigma). At time 0, the mice were dosed ip with 1.0 mg LPS/kg. After anesthetization with Hypnorm/Dormicum, the mice were bled from the periorbital venous plexus 80-90 minutes after LPS administration. The blood samples were sampled in EDTA stabilised tubes and centrifuged at 4000 rpm for 10 minutes at 4° C. The plasma level of TNF-α was analysed by ELISA. Compound 156 of WO 98/32730 was used as reference compound. The plasma level of TNF-α was determined using a sandwich ELISA. Microtiter plates were coated with a monoclonal antibody against mouse TNF-α, washed and blocked with a casein buffer. Samples of mouse TNF-α recombinant standards were added to the wells of the microtiter plates and incubated. All standards were tested in triplicate, all plasma samples in single. After sample and standard incubation, the plates were washed and incubated with biotinylated polyclonal secondary antibody against mouse TNF-α and washed. Enzyme conjugate was added to all wells and incubated. Substrate was added and the enzyme/substrate reaction stopped after 15 minutes at room temperature with 1M H2SO4. The colour development (OD) was measured at 450 nm on an ELISA reader and the background OD at 620 nm was subtracted. […] The results of the tested compounds are indicated as a percentage inhibition compared to an LPS treated control group. Compounds were tested at 10 mg/kg. The Mann-Whitney test was used to compare drug treated groups to the LPS treated control group (p<0.05).

TNF-α = test: Inhibition of TNF-α secretion in LPS stimulated peripheral blood mononuclear cells; assay type: cell-based; details: PBMC; LPS stimulated human peripheral blood mononuclear cells, 18 hours, ELISA; read-out: The median inhibition concentration (IC50, nM) of TNF-α
How it was run: as §1

IC50 (IL-1β) [nM] | IC50 (TNF-α) [nM] | Compound | inhibition at 10 mg/kg [1] [%]
3.2 | 2 | COc1ccc(C(=O)NCCCO)cc1C(=O)c1ccc(Nc2c(F)cccc2F)cc1Cl [Compound 176, 3-[2-Chloro-4-(2,6-difluoro-phenylamino)-benzoyl]-N-(3-hydroxy-propyl)-4-methoxy-benzamide] | 52
6.3 | 1.6 | COc1ccc(C(=O)NC(C)(C)CO)cc1C(=O)c1ccc(Nc2c(F)cccc2F)cc1Cl [Compound 178, 3-[2-Chloro-4-(2,6-difluoro-phenylamino)-benzoyl]-N-(2-hydroxy-1,1-dimethyl-ethyl)-4-methoxy-benzamide] | 67
2.5 | 0.8 | Cc1ccc(C(=O)NCCF)cc1C(=O)c1ccc(Nc2ccc(F)cc2F)cc1Cl [Compound 147, 3-[2-Chloro-4-(2,4-difluoro-phenylamino)-benzoyl]-N-(2-fluoro-ethyl)-4-methyl-benzamide] | 89
2.8 | 0.6 | CCNC(=O)c1ccc(C)c(C(=O)c2ccc(Nc3ccc(Cl)cc3F)cc2Cl)c1 [Compound 126, 3-[2-Chloro-4-(4-chloro-2-fluoro-phenylamino)-benzoyl]-N-ethyl-4-methyl-benzamide] | 79
0.6 | 0.2 | Cc1ccc(C(=O)NCC(F)(F)F)cc1C(=O)c1ccc(Nc2ccc(F)cc2F)cc1Cl [Compound 148, 3-[2-Chloro-4-(2,4-difluoro-phenylamino)-benzoyl]-4-methyl-N-(2,2,2-trifluoro-ethyl) benzamide] | 71
4.5 | 0.9 | Cc1ccc(C(=O)NC(C)(C)CO)cc1C(=O)c1ccc(Nc2ccc(F)cc2F)cc1Cl [Compound 156, 3-[2-Chloro-4-(2,4-difluoro-phenylamino)-benzoyl]-N-(2-hydroxy-1,1-dimethyl-ethyl)-4-methyl-benzamide] | 73
3.2 | 2.5 | C=CCNC(=O)c1ccc(C)c(C(=O)c2ccc(Nc3ccc(F)cc3F)cc2Cl)c1 [Compound 170, N-Allyl-3-[2-chloro-4-(2,4-difluoro-phenylamino)-benzoyl]-4-methyl-benzamide] | 87
1.6 | 0.5 | CCNC(=O)c1ccc(C)c(C(=O)c2ccc(Nc3ccc(F)cc3F)cc2Cl)c1 [Compound 149, 3-[2-Chloro-4-(2,4-difluoro-phenylamino)-benzoyl]-N-ethyl-4-methyl-benzamide] | 89
1.1 | 0.4 | COc1ccc(C(=O)NCC(O)CO)cc1C(=O)c1ccc(Nc2ccc(F)cc2)cc1Cl (stereo not drawn) [Compound 198, 3-[2-Chloro-4-(4-fluoro-phenylamino)-benzoyl]-N-(2,3-dihydroxy-propyl)-4-methoxy-benzamide] | 76
4 | 1 | CCNC(=O)c1ccc(C)c(C(=O)c2ccc(Nc3ccccc3N)cc2Cl)c1 [Compound 117, 3-[4-(2-Aminophenylamino)-2-chlorobenzoyl]-N-ethyl-4-methylbenzamide] | 71
1.3 | 0.6 | C=CCOC(=O)Nc1ccc(C)c(C(=O)c2ccc(Nc3ccc(F)cc3F)cc2Cl)c1 [Compound 278, {3-[2-Chloro-4-(2,4-difluoro-phenylamino)-benzoyl]-4-methyl-phenyl}-carbamic acid allyl ester] | 65
0.9 | 0.5 | Cc1ccc(C(=O)NCCO)cc1C(=O)c1ccc(Nc2ccc(F)cc2Cl)cc1Cl [Compound 188, 3-[2-Chloro-4-(2-chloro-4-fluoro-phenylamino)-benzoyl]-N-(2-hydroxy-ethyl)-4-methyl-benzamide] | 95
3.2 | 1.3 | COCCCNC(=O)c1ccc(C)c(C(=O)c2ccc(Nc3ccc(Cl)cc3F)cc2Cl)c1 [Compound 131, 3-[2-Chloro-4-(4-chloro-2-fluoro-phenylamino)-benzoyl]-N-(3-methoxy-propyl)-4-methyl-benzamide] | 70
4 | 1.8 | Cc1ccc(C(=O)NCCO)cc1C(=O)c1ccc(Nc2ccc(Br)cc2N)cc1Cl [Compound 113, 3-[4-(2-Amino-4-bromophenylamino)-2-chlorobenzoyl]-N-(2-hydroxyethyl)-4-methylbenzamide] | 83
5 | 2 | COc1ccc(C(=O)NCC(O)CO)cc1C(=O)c1ccc(Nc2ccccc2)cc1Cl (stereo not drawn) [Compound 202, 3-(2-Chloro-4-phenylamino-benzoyl)-N-(2,3-dihydroxy-propyl)-4-methoxy-benzamide] | 67
1 | 0.3 | CCCNC(=O)Nc1ccc(C)c(C(=O)c2ccc(Nc3ccc(F)cc3F)cc2Cl)c1 [Compound 264, 1-{3-[2-Chloro-4-(2,4-difluoro-phenylamino)-benzoyl]-4-methyl-phenyl}-3-propyl-urea] | 87
